{
  "source": "paper PMC7497641",
  "about": "“Neurotropic activity and safety of methylene-cycloalkylacetate (MCA) derivative 3-(3-allyl-2-methylenecyclohexyl) propanoic acid” (ACS Chemical Neuroscience, 2020)",
  "key": {"[1]": {"tested_on": "adult rat spinal cord primary cultures", "test": "Spinal cord neurons neurite outgrowth assay", "type": "cell-based", "settings": "10 μM HU-MCA-13", "procedure": "To study the effect of HU-MCA-13 on adult rat spinal cord primary cultures in vitro, we developed a purification procedure that yields enriched different types of spinal cord neuronal cultures. This neurotropic assay was performed using vehicle 1% DMSO in DMEM as control and 10 μM HU-MCA-13. The results in Figure 1 bottom row and Figure 3D clearly indicate that in control there was very poor spontaneous neurite outgrowth of a total length of about 180 μm and NGF induced neurite outgrowth to a total length of about 800 μm. Similarly, HU-MCA-13 induced a neurite outgrowth of 600 μm. Figure 2B indicates cytoskeletal-tubulin protein expression in the cultured neurons. These findings further extend the neurotropic effect of HU-MCA-13 to spinal cord neurons, in addition to DRGs and PC12 cells.\nSpinal cords were isolated from adult rats (4–6 months old), and the meninges were removed from the spinal cord. The spinal cord was then cut into small pieces and collected in cold Hibernate A (Brainbits, Springfield, IL, USA), glutamine (0.5 mM), and B27 (Invitrogen, Carlsbad, CA). […] Neurite outgrowth was measured and presented as mean length of a neurite (microns). To measure neuronal survival, 450 cells were counted in 10 randomly chosen microscope fields of a known area in each of the three dishes per condition using a 20× objective and phase-contrast optics. […]"}, "calcineurin phosphatase": {"tested_on": "calcineurin phosphatase", "test": "PhosphoSens CSox based phosphatase assay", "type": "biochemical", "settings": "5 μM HU-MCA-13", "description": "The initial focus was to measure the modulatory activity in vitro of MCA-13 on protein kinases which were reported to be involved in induction of neurite outgrowth.[18],[43] To do this, we took advantage of a powerful method to measure the activity of recombinant protein kinases using a homogeneous and continuous (kinetic) format, where the level of chelation-enhanced fluorescence (CHEF) is directly proportional to the amount of phosphorylated, real-time sensors consisting of sulfonamido-oxine (Sox) chromophore linked to a peptide or protein substrates of selective kinases.[44] […]\nKinase activity was measured continuously using the PhosphoSens®technology (AssayQuant Technologies Inc., Marlborough, MA) according to the manufacturers’ recommendations (http://www.assayquant.com/) . This one-step homogeneous assay use s chelation-enh anced fluorescence via optimized substrate sensors unique for each kinase, containing the unnatural fluorogenic amino-acid Sox. […]\nProtein kinase activity was determined in 54 mM HEPES, pH 7.5 1 mM ATP 1.2 mM DTT (none in ASK1) 0.012% Brij-35 1% glycerol 0.2 mg/ml BSA 0.52 mM EGTA (none in assays of CAMK2α, PKCε, PKCι, Calcineurin A/B) 140 µM phosphatidylserine/3.8 µM diacylglycerol (PKCε, PKCι only) 5 ng/µl calmodulin/0.4 mM CaCl2 (CAMK2α, Calcineurin A/B only) 10 mM […]"}},
  "data": [
    {"compound": "C=CCC1CCCC(CCC(=O)O)C1=C", "note": "(centres unmarked) [HU-MCA-13, 3-(3-allyl-2-methylenecyclohexyl)propanoic acid]", "values": [
      {"measurement": "neurite outgrowth total length", "setting": "[1]", "result": 600, "unit": "μm"},
      {"measurement": "effect on phosphatase activity", "setting": "calcineurin phosphatase", "result": "no effects"}
    ]}
  ]
}
